The term IC50 denotes the concentration at which inhibition is half-maximal. Low values mean higher potency, high ones lower potency.

This passage reports IC50 results from ChEMBL document CHEMBL1134369, “Inhibition of heme detoxification processes underlies the antimalarial activity of terpene isonitrile compounds from marine sponges” (J Med Chem, 2001).

The structures appear in SMILES notation.

In this test the test system is Plasmodium falciparum. The test is described as follows: Antiplasmodial activity against Plasmodium falciparum D6. The format is functional, organism-based.

For `[C-]#[N+][C@@]1(C)CC[C@H]2[C@H]3[C@@H](C(=C)CC[C@@H]31)[C@H](CC(C)(C)N=C=S)C[C@@H]2C`, the IC50 amounted to 1320 nM. In other words, the single-digit micromolar range.

For the compound `[C-]#[N+][C@@]1(C)CC[C@H]2[C@H]3[C@@H]4[C@H](C[C@@H](C)[C@@](C)(N=C=O)[C@H]4CC[C@@H]31)C[C@@H]2C`, half-maximal inhibition (IC50) required 9.4 nM.

`[C-]#[N+][C@@]1(C)CC[C@H]2[C@H]3[C@H]4C(=CC(C)(C)C[C@@H]4C[C@@H]2C)CC[C@@H]31` showed an IC50 of 249 nM.

The compound `[C-]#[N+][C@@]1(C)CC[C@H]2[C@H]3[C@H]4C(=CC[C@@H]31)CC(C)(C)C[C@@H]4C[C@@H]2C` had an IC50 of 285 nM.

`CC(C)=CCC[C@@H](C)[C@H]1CC[C@](C)(N=C=S)[C@H]2CCC(C)=C[C@H]12` displayed an IC50 of more than 30200 nM.

`[C-]#[N+][C@@]1(C)CC[C@H]2[C@H]3[C@H]4[C@H](CC[C@@H]31)[C@H](C)C(C)=C[C@@H]4C[C@@H]2C` had an IC50 of 210 nM.

`[C-]#[N+][C@@]1(C)CC[C@H]2[C@@H]3[C@@H]1CC[C@@H](C)[C@]3(/C=C/C(=C)C)C[C@@H]2C` yielded an IC50 of 289 nM.

Consider `[C-]#[N+][C@@]1(C)CC[C@H]2[C@H]3[C@@H](C(=C)CC[C@@H]31)[C@H](CC(=C)C)C[C@@H]2C`, for which the IC50 was determined as 1750 nM.

Take `[C-]#[N+][C@@]1(C)CC[C@H]2[C@H]3C(=C(C)CC[C@@H]31)[C@@H](C=C(C)C)C[C@@H]2C`: the IC50 is 197 nM.

`[C-]#[N+][C@@]1(C)CC[C@H]2[C@H]3[C@@H](C(=C)CC[C@@H]31)[C@@H](C=C(C)C)C[C@@H]2C` showed an IC50 of 47.4 nM. This IC50 lies about 4.2-fold lower than the previous one.

Regarding `[C-]#[N+][C@]1(C)[C@H](C)C[C@@H]2C[C@H](C)[C@H]3CC[C@](C)(N=C=O)[C@H]4CC[C@H]1[C@@H]2[C@H]34`, the IC50 was found to be 220 nM.

On to `C=C[C@H]1C[C@H](C)[C@H]2CC[C@](C)(N=C=S)[C@H]3CCC(=C)[C@]1(O)[C@H]23`, for which half-maximal inhibition (IC50) required 2310 nM.

As to `[C-]#[N+][C@@]1(C)CC[C@H]2[C@H]3[C@@H](C(C)=CC[C@@H]31)[C@H](C=C(C)C)C[C@@H]2C`, inhibition was half-maximal at 1020 nM (IC50).

With `[C-]#[N+][C@]1(C)[C@H](C)C[C@@H]2C[C@H](C)[C@H]3CC[C@](C)(N=C=S)[C@H]4CC[C@H]1[C@@H]2[C@H]34`, half-maximal inhibition (IC50) was put at 126 nM.

In the case of `[C-]#[N+][C@]1(C)[C@H](C)C[C@@H]2C[C@H](C)[C@H]3CC[C@](C)([N+]#[C-])[C@H]4CC[C@H]1[C@@H]2[C@H]34` [DIISOCYANOADOCIANE], the 50% inhibitory concentration (IC50) is 14.5 nM. This IC50 is about 8.7-fold lower than that of the compound before.
